# Assay results reported in patent publication US20140227408A1, “MEAT TREATMENT AND PRESERVATION METHOD” (RED MEAT AS, priority 2011, published 2014).
# Marks after values point to notes of the source that are not given here.
# Columns and labels:
# myoglobin in ground beef = assay: Myoglobin states (DMb, OMb, MMb) by reflectance spectra of treated ground beef, low oxygen packaging (Example 5); design: species or system cattle; conditions: for DMb / MMb / OMb: citrate High level (0.025 mol/kg), low oxygen, adjusted mean ± standard error
# Excerpt: (§1) Beef M. semimembranosus (M.S.) and beef fat tissue were collected four days post mortem (Fatland A/S, Oslo, Norway). The packaging day is defined as day zero, however, the tissues were 4 days post mortem on packing day. A piece of meat from proximal end was cut from each muscle in order to measure oxygen consumption, pH and surface colour. Fat tissue from pigs fed rapeseed and vitamin E to enhance the content of polyunsaturated fatty acids were from HKScan (Ruokatalo, Finland). The fat tissue was transported vacuum-packaged and frozen. Samples of minced fat tissue were removed for fatty acid analysis.
# (§2) The beef muscles were cut into pieces of approximately 10×5 cm and mixed to 14% w/w fat by using the fat tissues. Beef fat and pork fat tissues were ground twice with either raw beef from four young (16-19 months) or four old (46-81 months) cattle. […] The ground meat was blended manually with solutions (all at pH 5.8) with various TCA and glycolytic ingredients (see below).
# (§3) To maintain pH at 5.8 the solutions were prepared by mixing the acid form and the corresponding sodium salt of these chemicals.
# 40 g of 0.1 M or 0.05 M solutions were added to ground beef-fat mixture (360 g) to a total weight of 400 g. The solution was quickly and properly stirred into the minced meat and the blended system was subsequently packaged. […] Two reference samples with 40 ml of distilled water added to 360 gram of ground beef were also prepared each of the four production day, i.e. altogether 8 references were prepared. The samples were packaged in either low or high oxygen atmosphere.
# (§4) The ground beef was packaged in black amorphous polyethylene terephthalate (APET) trays that were sealed with ethylene vinyl alcohol (EVOH) top films. The trays and films (Wipak Multipet and Wipak Biaxer, both Wipak, Nastola, Finland) had oxygen transmission rates of 7 and 5 cm^3/m^2/24 h at 23° C. at 50% relative humidity. Packaging was carried out within 1 hour after grinding. The samples were stored in darkness at 4° C. for 8 days in a high-oxygen atmosphere (75% oxygen and 25% CO2) and for 13 days in a low-oxygen atmosphere (60% CO2 and 40% N2). These food grade gas mixtures were supplied by AGA (Oslo, Norway).
# Samples were scanned, […], with a Foss NIRSystems OptiProbe™ 6500 Analyzer (Foss NIRSystems Inc., Maryland, USA) without opening of the package. The package was turned upside-down before measurements so that the meat would fall on the packaging film. The samples were scanned with three random placements of the probe on the package surface in order to increase the scanning area and reduce the measurement errors. Thirty-two scans for both reference and samples were acquired and averaged on each measured area. All measurements were performed at room temperature (approx. 20° C.) according to Khatri, et al. (Meat Sci. (2012) 91(3): 223-231). These spectra were used to predict OMb, MMb and DMb levels. Calibration was performed using comminuted meat with 10% w/w added water.
# (§5) The colour of the samples packaged in high O2 was measured after 0, 1, 3, 6 and 8, days of storage from packaging day, while low O2 samples were measured at 0 to 13 days of storage using Minolta and reflectance measurements.
# The statistical analysis was performed according to the approach described by Langsrud et al. (J. Appl. Statist. (2007) 34:1275-1296) and implemented in the 50-50 MANOVA software (http://www.langsrud.com/stat/program.htm). This program handles mixture designs as generalized categorical variables (generalized ANOVA). When using this method one can always formulate equivalent models that use the individual mixture variables as ordinary (one degree of freedom) regression variables. Then one arbitrary mixture variable has to be omitted (slack variable).
# [1] = Colour L*, a*, b* of treated ground beef, low oxygen packaging (Example 5); design: species or system cattle; conditions: citrate High level (0.025 mol/kg), low oxygen, adjusted mean ± standard error
# Excerpt: as §1, §2, §3
# […] The solution was quickly and properly stirred into the minced meat and the blended system was subsequently packaged. […] Two reference samples with 40 ml of distilled water added to 360 gram of ground beef were also prepared each of the four production day, i.e. altogether 8 references were prepared. The samples were packaged in either low or high oxygen atmosphere.
# as §4
# The colour of the ground meat samples was measured with a Konica Minolta Chroma Meter CR 410 (Konica Minolta Sensing Inc., Osaka, Japan) using the glass light projection tube CR A 33e with wide illumination area (61 mm) and illuminant D65. The instrument was calibrated each day by measuring a white ceramic plate (L*=97.9; a*=0.05; b*=2). All colour measurements were made with 3 replicates (CIE, 1976, “Recommendations on uniform colour spaces-colour difference equations” (Vol. Supplement No. 2 to CIE). Paris, France: Commission Internationale de l'Eclairage).
# as §5
# The experimental design is visualized in FIG. 5. A 2^2 design (animal age and type of fat tissue) was split over 4 experimental days (FIG. 5, and Tables 10 and 11). To each corner of this 2^2 design was added a 3 component (succinate, pyruvate and glutamate-malate additions; 0, 50 and 100%) simplex lattice mixture design with 2 additional centre experiments as shown in FIG. 5.
smiles,measurement,setting,value
O=C(O)CC(O)(CC(=O)O)C(=O)O [Citrate],DMb,myoglobin in ground beef; Day 1,42.1 ± 3.3 %
same,MMb,myoglobin in ground beef; Day 1,50.2 ± 3.0 %
same,OMb,myoglobin in ground beef; Day 1,7.8 ± 0.4 %
same,DMb,myoglobin in ground beef; Day 3,55.5 ± 3.3 %
same,MMb,myoglobin in ground beef; Day 3,39.1 ± 3.1 %
same,OMb,myoglobin in ground beef; Day 3,5.5 ± 0.4%
same,DMb,myoglobin in ground beef; Day 6,64.9 ± 3.1%
same,OMb,myoglobin in ground beef; Day 6,3.7 ± 0.4%
same,DMb,myoglobin in ground beef; Day 8,66.6 ± 3.1%
same,OMb,myoglobin in ground beef; Day 8,4.1 ± 0.4%
same,DMb,myoglobin in ground beef; Day 10,69.9 ± 3.0%
same,MMb,myoglobin in ground beef; Day 10,26.3 ± 2.9 %
same,OMb,myoglobin in ground beef; Day 10,3.8 ± 0.3%
same,DMb,myoglobin in ground beef; Day 13,72.3 ± 4.1 %
same,MMb,myoglobin in ground beef; Day 13,23.9 ± 3.8 %
same,OMb,myoglobin in ground beef; Day 13,3.8 ± 0.5 %
same,"effect on myoglobin states (DMb, OMb, MMb), in words",myoglobin in ground beef; low oxygen packaging,increased OMb and MMb while the DMb was reduced
same,L*,[1]; Day 1,33.5 ± 0.3
same,a*,[1]; Day 1,6.6 ± +.3*
same,b*,[1]; Day 1,2.3 ± 0.2
same,L*,[1]; Day 3,33.0 ± 0.3
same,a*,[1]; Day 3,7.1 ± 0.2
same,b*,[1]; Day 3,2.3 ± 0.1*
same,L*,[1]; Day 6,33.3 ± 0.2*
same,a*,[1]; Day 6,7.5 ± 0.2
same,b*,[1]; Day 6,2.2 ± 0.1*
same,L*,[1]; Day 8,33.4 ± 0.2*
same,a*,[1]; Day 8,7.5 ± 0.2
same,b*,[1]; Day 8,2.1 ± 0.1*
same,L*,[1]; Day 10,33.4 ± 0.2*
same,a*,[1]; Day 10,7.6 ± 0.2
same,b*,[1]; Day 10,2.1 ± 0.1
same,L*,[1]; Day 13,33.2 ± 0.3*
same,a*,[1]; Day 13,7.6 ± 0.4
same,b*,[1]; Day 13,2.1 ± 0.2*
